In patent US20260226086A1, “COMPOUNDS AND COMPOSITIONS AS STAT3 DEGRADERS AND USES THEREOF” (REGENTS OF THE UNIVERSITY OF MICHIGAN, priority 2023, published 2026):

Tests used:
Format in all cases: cell-based
SU-DHL-1 cells = assay: CellTiter-Glo 2.0 cell viability assay, SU-DHL-1; settings: Homo sapiens, 96 h, 4 days
Protocol: For example, cell viability may be determined by CellTiter-Glo 2.0 Cell Viability Assay. In a typical procedure, cells seeded at certain amounts of cells (e.g., 1000 cells) per well are incubated with serially diluted compounds for certain period (e.g., 4 days) under certain conditions (e.g., at 37° C. with 5% CO2). At the end of treatment, CellTiter-Glo 2.0 is added to the wells and luminescence is acquired on TECAN SPARK plate reader. Untreated cells are used as control, Data points are fit with an equation (e.g., a four-parameter equation) to generate a concentration-response curve. IC50 values are calculated using a nonlinear regression analysis of the mean±SD from triplicate.
SU-DHL-1 and SUP-M2 cell viability was determined by CellTiter-Glo 2.0 Cell Viability Assay (Promega). SU-DHL-1 cell line was purchased from ATCC (Manassas, VA) and SUP-M2 (ACC-509) was purchased from DSMZ (Germany). RPMI 1640 medium and fetal bovine serum (FBS) were purchased from Gibco/Thermo Fisher Scientific. In a typical procedure, cells seeded at 1000 cells per well in 384-well white plates (Corning) were incubated with serially diluted compounds for 4 days at 37° C. with 5% C02. At the end of treatment, CellTiter-Glo 2.0 was added to the wells and luminescence was acquired on TECAN SPARK plate reader. Untreated cells were used as control. Data points were fit with a four-parameter equation to generate a concentration-response curve. IC50 values were calculated using a nonlinear regression analysis of the mean±SD from triplicate.

STAT3 = biological target: T1, STAT3 (Homo sapiens, UniProt P40763); assay: HiBiT assay, STAT3 degradation in STAT3-HiBiT KI HeLa cells; settings: 24 h; for DC50: read-out: STAT3 Degradation (HeLa 24 h HiBit) DC50
T1 construct: This cell line is a clone created by using CRISPR-Cas9 to fuse HiBiT to the 3′ end of STAT3 in HeLa cells; host or cells: STAT3-HiBiT KI HeLa cell line (CRISPR-Cas9 knock-in clone)
Method in brief: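 HeLa cells with CRISPR knock-in of HiBiT at the STAT3 C-terminus, 20000 cells/well, treated with serial compound dilutions for 24 h at 37 °C, 5% CO2. Remaining STAT3 read by Nano-Glo HiBiT lytic luminescence versus untreated cells; IC50 from four-parameter nonlinear fit of triplicate means.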

SUP-M2 cells = assay: CellTiter-Glo 2.0 cell viability assay, SUP-M2; settings: SUP-M2, 96 h, 4 days
Method in brief: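 1000 cells per well exposed to serially diluted compounds for 4 days at 37 °C, 5% CO2. Viability measured by CellTiter-Glo 2.0 luminescence versus untreated cells; IC50 from four-parameter nonlinear fit of triplicate means.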

T1 sequence (P40763 whole entry): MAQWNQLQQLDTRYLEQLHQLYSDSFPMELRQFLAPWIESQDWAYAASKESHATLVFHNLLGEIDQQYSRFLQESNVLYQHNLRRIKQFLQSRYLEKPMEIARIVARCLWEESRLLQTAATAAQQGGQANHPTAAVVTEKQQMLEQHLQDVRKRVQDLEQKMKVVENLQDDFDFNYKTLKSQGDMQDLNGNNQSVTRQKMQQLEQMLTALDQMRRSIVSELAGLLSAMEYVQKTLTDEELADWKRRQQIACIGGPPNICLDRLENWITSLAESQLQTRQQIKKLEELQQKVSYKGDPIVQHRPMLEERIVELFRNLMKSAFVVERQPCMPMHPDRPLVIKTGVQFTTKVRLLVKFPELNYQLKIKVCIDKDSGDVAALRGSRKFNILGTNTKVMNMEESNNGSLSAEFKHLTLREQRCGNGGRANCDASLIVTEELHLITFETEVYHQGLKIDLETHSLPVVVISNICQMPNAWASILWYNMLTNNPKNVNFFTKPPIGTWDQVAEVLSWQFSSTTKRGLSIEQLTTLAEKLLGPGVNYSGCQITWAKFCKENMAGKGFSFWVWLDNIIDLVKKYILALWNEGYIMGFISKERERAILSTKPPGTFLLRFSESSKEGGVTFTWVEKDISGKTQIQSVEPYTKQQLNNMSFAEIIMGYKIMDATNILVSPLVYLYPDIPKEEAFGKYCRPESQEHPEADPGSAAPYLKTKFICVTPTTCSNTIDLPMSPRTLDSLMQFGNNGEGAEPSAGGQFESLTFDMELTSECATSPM

Row | SMILES | IC50 (SU-DHL-1 cells) [nM] | Dmax at 1 µM (STAT3) [%] | DC50 (STAT3) [nM] | IC50 (SUP-M2 cells) [nM]
1 | CC(=O)N1CC[C@H]2CC[C@@H](C(=O)N[C@@H](CCC(N)=O)COc3cccc(CCCc4cn([C@H](C(=O)N5C[C@H](O)C[C@H]5C(=O)N[C@@H](C)c5ccc(-c6scnc6C)cc5)C(C)(C)C)nn4)c3Cl)N2C(=O)[C@@H](NC(=O)c2cc3cc(C(=O)P(=O)(O)O)ccc3[nH]2)C1 [Compound 1, (2-(((5S,8S,10aR)-3-acetyl-8-(((S)-5-amino-1-(2-chloro-3-(3-(1-((S)-1-((2S,4R)-4-hydroxy-2-(((S)-1-(4-(4-methylthiazol-5-yl)phenyl)ethyl)carbamoyl)pyrrolidin-1-yl)-3,3-dimethyl-1-oxobutan-2-yl)-1H-1,2,3-triazol-4-yl)propyl)phenoxy)-5-oxopentan-2-yl)carbamoyl)-6-oxodecahydropyrrolo[1,2-a][1,5]diazocin-5-yl)carbamoyl)-1H-indole-5-carbonyl)phosphonic acid] | < 10 | > 80 | < 10 | < 10
2 | CC(=O)N1CC[C@H]2CC[C@@H](C(=O)N[C@@H](CCC(N)=O)COc3cccc(CCCCN4CCC([C@@H](C(=O)N5C[C@H](O)C[C@H]5C(=O)N[C@@H](C)c5ccc(-c6scnc6C)cc5)n5cc(C6CC6)nn5)CC4)c3Cl)N2C(=O)[C@@H](NC(=O)c2cc3cc(C(=O)P(=O)(O)O)ccc3[nH]2)C1 [Compound 38, (2-(((5S,8S,10aR)-3-acetyl-8-(((S)-5-amino-1-(2-chloro-3-(4-(4-((S)-1-(4-cyclopropyl-1H-1,2,3-triazol-1-yl)-2-((2S,4R)-4-hydroxy-2-(((S)-1-(4-(4-methylthiazol-5-yl)phenyl)ethyl)carbamoyl)pyrrolidin-1-yl)-2-oxoethyl)piperidin-1-yl)butyl)phenoxy)-5-oxopentan-2-yl)carbamoyl)-6-oxodecahydropyrrolo[1,2-a][1,5]diazocin-5-yl)carbamoyl)-1H-indole-5-carbonyl)phosphonic acid] | > 1000 | 60 to 80 | 100 to 1000 | 10 to 100
3 | Cc1ncsc1-c1ccc([C@H](C)NC(=O)[C@@H]2C[C@@H](O)CN2C(=O)[C@@H](n2cc(CCCCCC(=O)N3CC[C@H]4CC[C@@H](C(=O)N[C@@H](CCC(N)=O)C(=O)NC(c5ccccc5)c5ccccc5)N4C(=O)[C@@H](NC(=O)c4cc5cc(C(=O)P(=O)(O)O)ccc5[nH]4)C3)nn2)C(C)(C)C)cc1 [Compound 58, (2-(((5S,8S,10aR)-8-(((S)-5-amino-1-(benzhydrylamino)-1,5-dioxopentan-2-yl)carbamoyl)-3-(6-(1-((S)-1-((2S,4R)-4-hydroxy-2-(((S)-1-(4-(4-methylthiazol-5-yl)phenyl)ethyl)carbamoyl)pyrrolidin-1-yl)-3,3-dimethyl-1-oxobutan-2-yl)-1H-1,2,3-triazol-4-yl)hexanoyl)-6-oxodecahydropyrrolo[1,2-a][1,5]diazocin-5-yl)carbamoyl)-1H-indole-5-carbonyl)phosphonic acid] | > 1000 |  | > 1000 | 100 to 1000
4 | COCCOCCOCCOCCN1CC[C@H]2CC[C@@H](C(=O)N[C@@H](CCC(N)=O)COc3cccc(CCCc4cn([C@H](C(=O)N5C[C@H](O)C[C@H]5C(=O)N[C@@H](C)c5ccc(-c6scnc6C)cc5)C(C)(C)C)nn4)c3Cl)N2C(=O)[C@@H](NC(=O)c2cc3cc(C(=O)P(=O)(O)O)ccc3[nH]2)C1 [Compound 31, (2-(((5S,8S,10aR)-8-(((S)-5-amino-1-(2-chloro-3-(3-(1-((S)-1-((2S,4R)-4-hydroxy-2-(((S)-1-(4-(4-methylthiazol-5-yl)phenyl)ethyl)carbamoyl)pyrrolidin-1-yl)-3,3-dimethyl-1-oxobutan-2-yl)-1H-1,2,3-triazol-4-yl)propyl)phenoxy)-5-oxopentan-2-yl)carbamoyl)-6-oxo-3-(2,5,8,11-tetraoxatridecan-13-yl)decahydropyrrolo[1,2-a][1,5]diazocin-5-yl)carbamoyl)-1H-indole-5-carbonyl)phosphonic acid] | 10 to 100 | > 80 | 10 to 100 | 10 to 100
5 | Cc1ncsc1-c1ccc([C@H](C)NC(=O)[C@@H]2C[C@@H](O)CN2C(=O)[C@@H](n2cc(CCCCCCCCC(=O)N3CC[C@H]4CC[C@@H](C(=O)N[C@@H](CCC(N)=O)C(=O)NC(c5ccccc5)c5ccccc5)N4C(=O)[C@@H](NC(=O)c4cc5cc(C(=O)P(=O)(O)O)ccc5[nH]4)C3)nn2)C(C)(C)C)cc1 [Compound 61, (2-(((5S,8S,10aR)-8-(((S)-5-amino-1-(benzhydrylamino)-1,5-dioxopentan-2-yl)carbamoyl)-3-(9-(1-((S)-1-((2S,4R)-4-hydroxy-2-(((S)-1-(4-(4-methylthiazol-5-yl)phenyl)ethyl)carbamoyl)pyrrolidin-1-yl)-3,3-dimethyl-1-oxobutan-2-yl)-1H-1,2,3-triazol-4-yl)nonanoyl)-6-oxodeca-hydropyrrolo[1,2-a][1,5]diazocin-5-yl)carbamoyl)-1H-indole-5-carbonyl)phosphonic acid] | > 1000 |  | > 1000 | > 1000
6 | Cc1ncsc1-c1ccc([C@H](C)NC(=O)[C@@H]2C[C@@H](O)CN2C(=O)[C@@H](NC(=O)CCCCCCCC(=O)N2CC[C@H]3CC[C@@H](C(=O)N[C@@H](CCC(N)=O)C(=O)NC(c4ccccc4)c4ccccc4)N3C(=O)[C@@H](NC(=O)c3cc4cc(C(=O)P(=O)(O)O)ccc4[nH]3)C2)C(C)(C)C)cc1 [Compound 52, (2-(((5S,8S,10aR)-8-(((S)-5-amino-1-(benzhydrylamino)-1,5-dioxopentan-2-yl)carbamoyl)-3-(9-(((S)-1-((2S,4R)-4-hydroxy-2-(((S)-1-(4-(4-methylthiazol-5-yl)phenyl)ethyl)carbamoyl)pyrrolidin-1-yl)-3,3-dimethyl-1-oxobutan-2-yl)amino)-9-oxononanoyl)-6-oxodecahydropyrrolo[1,2-a][1,5]diazocin-5-yl)carbamoyl)-1H-indole-5-carbonyl)phosphonic acid] | 100 to 1000 |  | 100 to 1000 | 100 to 1000
7 | Cc1ncsc1-c1ccc([C@H](C)NC(=O)[C@@H]2C[C@@H](O)CN2C(=O)[C@@H](n2cc(CCCc3cccc(OC[C@H](CCC(N)=O)NC(=O)[C@@H]4CC[C@@H]5CCN(C(=O)CCN6CCN(C)CC6)C[C@H](NC(=O)c6cc7cc(C(=O)P(=O)(O)O)ccc7[nH]6)C(=O)N54)c3Cl)nn2)C(C)(C)C)cc1 [Compound 33, (2-(((5S,8S,10aR)-8-(((S)-5-amino-1-(2-chloro-3-(3-(1-((S)-1-((2S,4R)-4-hydroxy-2-(((S)-1-(4-(4-methylthiazol-5-yl)phenyl)ethyl)carbamoyl)pyrrolidin-1-yl)-3,3-dimethyl-1-oxobutan-2-yl)-1H-1,2,3-triazol-4-yl)propyl)phenoxy)-5-oxopentan-2-yl)carbamoyl)-3-(3-(4-methylpiperazin-1-yl)propanoyl)-6-oxodecahydropyrrolo[1,2-a][1,5]diazocin-5-yl)carbamoyl)-1H-indole-5-carbonyl)phosphonic acid] | 10 to 100 | > 80 | 10 to 100 | 100 to 1000
8 | Cc1ncsc1-c1ccc([C@H](C)NC(=O)[C@@H]2C[C@@H](O)CN2C(=O)[C@@H](NC(=O)CCCC(=O)N2CC[C@H]3CC[C@@H](C(=O)N[C@@H](CCC(N)=O)C(=O)NC(c4ccccc4)c4ccccc4)N3C(=O)[C@@H](NC(=O)c3cc4cc(C(=O)P(=O)(O)O)ccc4[nH]3)C2)C(C)(C)C)cc1 [Compound 48, (2-(((5S,8S,10aR)-8-(((S)-5-amino-1-(benzhydrylamino)-1,5-dioxopentan-2-yl)carbamoyl)-3-(5-(((S)-1-((2S,4R)-4-hydroxy-2-(((S)-1-(4-(4-methylthiazol-5-yl)phenyl)ethyl)carbamoyl)pyrrolidin-1-yl)-3,3-dimethyl-1-oxobutan-2-yl)amino)-5-oxopentanoyl)-6-oxodecahydropyrrolo[1,2-a][1,5]diazocin-5-yl)carbamoyl)-1H-indole-5-carbonyl)phosphonic acid] | 10 to 100 |  | 10 to 100 | 10 to 100
